Laboratory results reported in patent US20220362264A1, “ABIRATERONE-CYCLIC OLIGOMER PHARMACEUTICAL FORMULATIONS AND METHODS OF FORMATION AND ADMINISTRATION THEREOF” (DISPERSOL TECHNOLOGIES, LLC., priority 2019, published 2022).

Columns and labels:
[1] = tested on: prostate specific antigen (PSA); conditions: 1,000 mg daily, well controlled trials; cited from earlier work
[2] = tested on: 22RV1 human prostate tumor xenograft; assay: Anti-tumor activity in 22RV1 human prostate tumor xenograft model; type: in vivo, CB.17 SCID mice; conditions: low and high doses, once-daily oral gavage
Method: The objective of the xenograft mice study was to determine the anti-tumor activity of a composition made per Example 2.4 as a single agent versus abiraterone acetate in the 22RV1 human prostate tumor xenograft model. The study was conducted in CB.17 SCID mice injected with 22RV1 cells (5×10^6 cells/mouse) in the subcutaneous right flank. Tumors were grown to a mean tumor size between 100 and 150 mm^3 prior to study enrollment. The mice were dosed with the test article and reference once-daily by oral gavage per Table 12. Tumor volume was measured throughout the study. The study was terminated on day 26 when mean tumor volume of two experimental groups reached≥1500 mm^3.

[3] = cited from earlier work
[4] = Phase solubility analysis of abiraterone-HPBCD; type: physicochemical; conditions: with HPBCD, in 0.01N HCl and FaSSIF
Method: Phase Solubility Analysis. Phase solubility analysis was conducted in two separate media, i.e., 0.01N HCl (pH 2.0) and FaSSIF (prepared in 50 mMol Phosphate Buffer pH 6.8). Solutions of HPBCD ranging from 0 mg/mL to 600 mg/mL were prepared in each media in scintillation vials. An excess of abiraterone was added to each vial and the vials were sonicated for 30 minutes and placed on a bench. Samples were pulled from each vial at time points of 48 hrs and 7 days. The samples were centrifuged using an ultracentrifuge (Eppendrof, Hamburg, Germany) The supernatants were further diluted using the HPLC diluent and analyzed by HPLC method mentioned above to find the concentration of abiraterone.

type of solution state phase solubility profile (Higuchi and Connors) [4]	SMILES	treated patients achieving target PSA reductions [1]	tumor growth relative to vehicle control [2]	pKa [3]
–	CC(=O)O[C@H]1CC[C@@]2(C)C(=CC[C@@H]3[C@@H]2CC[C@]2(C)C(c4cccnc4)=CC[C@@H]32)C1 [Abiraterone Acetate, (3β)-17-(3-pyridinyl)androsta-5, 16-dien-3-ol acetate]	up to 60%	did not result in statistically different tumor growth	–
A-type	C[C@]12CC[C@H](O)CC1=CC[C@@H]1[C@@H]2CC[C@]2(C)C(c3cccnc3)=CC[C@@H]12 [Abiraterone, (3β)-17-(3-pyridinyl)androsta-5,16-dien-3-ol]	–	–	4.81
